According to paper PMC5096734 (Chembiochem : a European journal of chemical biology, 2014):

Tests used:
Test in all cases: fluorogenic hydrolysis, Michaelis-Menten
[1] = tested on: C. antarctica lipase; format: biochemical, Moesziomyces antarcticus; details: enzyme 10 μg/mL
[2] = tested on: B. subtilis esterase; format: biochemical, Bacillus subtilis; details: enzyme 0.5 μg/mL
[3] = tested on: PLE; format: biochemical, Sus scrofa
[4] = molecular target: T1, M. miehei lipase (Rhizomucor miehei, UniProt P19515); format: biochemical; details: enzyme 10 μg/mL
T1 sequence (P19515 95-363): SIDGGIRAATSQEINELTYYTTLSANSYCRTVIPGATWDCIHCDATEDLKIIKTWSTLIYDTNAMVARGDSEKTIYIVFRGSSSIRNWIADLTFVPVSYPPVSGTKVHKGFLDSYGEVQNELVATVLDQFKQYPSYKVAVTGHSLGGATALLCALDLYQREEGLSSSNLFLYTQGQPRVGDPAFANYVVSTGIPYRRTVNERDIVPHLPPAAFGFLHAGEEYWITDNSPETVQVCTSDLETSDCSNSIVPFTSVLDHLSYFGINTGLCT

With `CC(=O)OCOc1ccc2nc3ccc(=O)cc-3oc2c1` [Res-AME] the Km [1] was 6.8 ± 0.4 µM, the Km [2] was 19 ± 2 µM and the Km ([3]; enzyme 0.050 μg/mL) was 4.9 ± 0.7 µM.

For DDAO-AME 1, the Km [1] was 9.5 ± 1.1 µM, the Km [4] was 4.4 ± 0.7 µM and the Km [2] was 6.7 ± 0.5 µM. The Km ([3]; enzyme 0.5 μg/mL) was 7.5 ± 0.8 µM.
